Data: publication PMC6479349, “Derivatives of 3-Aminopyrazine-2-carboxamides: Synthesis, Antimicrobial Evaluation, and in Vitro Cytotoxicity” (Molecules, 2019)
Values after ≈ are worked out from the molar mass of the structure shown. Values joined by “and” are separate entries in the source; they are usually repeats but may differ in a detail not shown here. Equal values may be shown once. Read-outs that look alike come from different tables or passages of the source.

Legend:
[1] = test system: Mycobacterium tuberculosis H37Rv; experiment: Antimycobacterial microdilution broth MIC (Alamar Blue); type: cell-based
[2] = test system: Mycobacterium smegmatis DSM 43465; experiment: Antimycobacterial microdilution broth panel MIC (resazurin); type: cell-based
[3] = test system: Trichophyton interdigitale CCM 8377; experiment: Antifungal microdilution broth MIC; settings: for MIC: Trichophyton interdigitale, CCM8377, 72 h
[4] = Lipophilicity by reverse phase HPLC (log k); settings: RP-HPLC C18, MeOH 70% / H2O 30%, 30 °C
Procedure: The mobile phase consisted of MeOH (HPLC grade, 70%) and H2O (HPLC-Milli-Q Grade, 30%). The flow rate was 1.0 mL/min, samples were injected in a volume of 20 µL, and the column temperature was 30 °C. Detection and monitoring wavelength were 210 nm and 270 nm, respectively. Retention times (Rt) were measured in minutes. The dead time of the system (Dt) was determined as the retention time of the KI methanolic solution. Capacity factors k for individual compounds were calculated according to the formula k = (Rt – Dt)/Dt. Capacity factor k was converted to log scale and (log k) and used as a measure of lipophilicity.

[5] = test system: M. kansasii CNCTC My 235/80; experiment: Antimycobacterial microdilution broth MIC (Alamar Blue); type: cell-based, Mycobacterium kansasii; settings: Mycobacterium kansasii
[6] = In vitro cytotoxicity, CellTiter 96 Aqueous One; settings: human
[7] = test system: tested bacterial strains; experiment: Antibacterial microdilution broth screening, strain not specified; settings: read-out: MIC against the tested strains (antibacterial)
[8] = test system: Mycobacterium aurum DSM 43999; experiment: Antimycobacterial microdilution broth panel MIC (resazurin); type: cell-based; settings: Mycolicibacterium aurum, DSM43999
[9] = test system: Staphylococcus aureus CCM 4223; experiment: Antibacterial microdilution broth MIC; settings: CCM4223, 48 h, read-out: MIC Staphylococcus aureus (standards)
[10] = test system: Staphylococcus aureus methicillin resistant CCM 4750; experiment: Antibacterial microdilution broth MIC; settings: CCM4750, 48 h, read-out: MIC Staphylococcus aureus methicillin resistant (standards)
[11] = test system: Staphylococcus epidermidis 112-2016; experiment: Antibacterial microdilution broth MIC; settings: Staphylococcus epidermidis, 1122016, 48 h, read-out: MIC Staphylococcus epidermidis (standards)
[12] = test system: Enterococcus faecalis CCM 4224; experiment: Antibacterial microdilution broth MIC; settings: CCM4224, 48 h, read-out: MIC Enterococcus faecalis (standards)
[13] = test system: Escherichia coli CCM 3954; experiment: Antibacterial microdilution broth MIC; settings: CCM3954, 48 h, read-out: MIC Escherichia coli (standards)
[14] = test system: Klebsiella pneumoniae 64-2016; experiment: Antibacterial microdilution broth MIC; settings: Klebsiella pneumoniae, 642016, 48 h, read-out: MIC Klebsiella pneumonia (standards)
[15] = test system: Serratia marcescens 62-2016; experiment: Antibacterial microdilution broth MIC; settings: Serratia marcescens, 622016, 48 h, read-out: MIC Serratia marcescens (standards)
[16] = test system: Pseudomonas aeruginosa CCM 3955; experiment: Antibacterial microdilution broth MIC; settings: CCM3955, 48 h, read-out: MIC Pseudomonas aeruginosa (standards)
[17] = test system: C. krusei CCM 8271; experiment: Antifungal microdilution broth MIC; settings: Pichia kudriavzevii, CCM8271, 48 h, read-out: MIC C. krusei (standards)
[18] = test system: C. parapsilosis CCM 8260; experiment: Antifungal microdilution broth MIC; settings: Lodderomyces parapsilosis, CCM8260, 48 h, read-out: MIC C. parapsilosis (standards)
[19] = test system: C. tropicalis CCM 8264; experiment: Antifungal microdilution broth MIC; settings: Candida tropicalis, CCM8264, 48 h, read-out: MIC C. tropicalis (standards)
[20] = test system: Aspergillus flavus CCM 8363; experiment: Antifungal microdilution broth MIC; settings: CCM8363, 48 h, read-out: MIC Aspergillus flavus (standards)
[21] = test system: Lichtheimia corymbifera CCM 8077; experiment: Antifungal microdilution broth MIC; settings: CCM8077, 48 h, read-out: MIC Lichtheimia corymbifera (standards)
[22] = Mycobacterium tuberculosis, H37RV, M. tuberculosis H37Rv, value in parentheses
[23] = Mycobacterium tuberculosis, H37RV, pH 6.6, M. tuberculosis H37Rv, Middlebrook 7H9 pH 6.6
[24] = Mycolicibacterium smegmatis, DSM43465
[25] = Mycolicibacterium smegmatis, DSM43465, value in parentheses
[26] = M. tuberculosis H37Rv, value in parentheses
[27] = M. tuberculosis H37Rv, Middlebrook 7H9 pH 6.6

| Compound | MIC [1, 22] [µM] | MIC [1, 23] [µg/mL] | MIC [2, 24] [µg/mL] | MIC [2, 25] [µM] | log k [4] | other results |
| --- | --- | --- | --- | --- | --- | --- |
| CCCCCNC(=O)c1nccnc1N [Compound 9, 3-Amino-N-pentylpyrazine-2-carboxamide] | > 480 | > 100 | > 500 | > 2400 | 0.327 | MIC ([3]; read-out: MIC72h TI): 500 µM |
| Cc1ccccc1CNC(=O)c1nccnc1N [Compound 2, 3-Amino-N-(2-methylbenzyl)pyrazine-2-carboxamide] | > 413 | > 100 | > 500 | > 2060 | 0.278 | – |
| Nc1nccnc1C(=O)NCc1ccccc1 [Compound 1, 3-Amino-N-benzylpyrazine-2-carboxamide] | > 438 | > 100 | > 500 | > 2190 | 0.056 | antifungal activity against TI [3]: showed activity mainly against TI |
| CCCCCCNC(=O)c1nccnc1N [Compound 10, 3-Amino-N-hexylpyrazine-2-carboxamide] | 450 | 100 | 250 | 1120 | 0.569 | MIC [1, 26]: 449.9 µM; MIC [5]: 100 µg/mL and 450 µM; MIC ([3]; read-out: MIC72h TI): 250 µM; IC50 at 24 h [6]: 389 µM; MIC [7]: 500 µM (≈ 111 µg/mL) |
| CCc1ccc(NC(=O)c2nccnc2N)cc1 [Compound 16, 3-Amino-N-(4-ethylphenyl)pyrazine-2-carboxamide] | > 413 | > 100 | > 500 | > 2060 | 0.623 | IC50 at 24 h [6]: > 250 µM |
| Cc1ccc(CNC(=O)c2nccnc2N)cc1 [Compound 3, 3-Amino-N-(4-methylbenzyl)pyrazine-2-carboxamide] | 413 | 50 to 100 | > 500 | > 2060 | 0.289 | MIC Mtb [1, 27]: 100 µg/mL (≈ 413 µM); antifungal activity against TI [3]: showed activity mainly against TI |
| CCCCCCCCNC(=O)c1nccnc1N [Compound 12, 3-Amino-N-octylpyrazine-2-carboxamide] | 100 | 25 | 62.5 | 250 | 1.057 | MIC [1, 26]: 99.9 µM; MIC [5]: 25 µg/mL and 100 µM; MIC ([2]; value in parentheses): 249.7 µM; MIC ([3]; read-out: MIC72h TI): 250 µM; MIC [7]: 62.5 µM (≈ 15.6 µg/mL) |
| CO[C@H]1/C=C/O[C@@]2(C)Oc3c(C)c(O)c4c(O)c(c(/C=N/N5CCN(C)CC5)c(O)c4c3C2=O)NC(=O)/C(C)=C\C=C\[C@H](C)[C@H](O)[C@@H](C)[C@@H](O)[C@@H](C)[C@H](OC(C)=O)[C@@H]1C [RIF, rifampicin, reference compound] | – | – | 12.5 to 25 | – | – | MIC [8]: 0.78 to 1.56 µg/mL (≈ 0.948 to 1.9 µM) |
| O=C(O)c1cn(C2CC2)c2cc(N3CCNCC3)c(F)cc2c1=O [ciprofloxacin] | – | – | 0.0625 to 0.125 | – | – | MIC [8]: 0.00781 to 0.0156 µg/mL (≈ 0.0236 to 0.0472 µM); MIC [9]: 0.128 to 0.256 µg/mL (≈ 0.386 to 0.773 µM); MIC [10]: 0.128 µg/mL (≈ 0.386 µM); MIC [11]: > 1.02 µg/mL; MIC [12]: 0.512 µg/mL (≈ 1.55 µM); MIC [13]: 0.008 µg/mL (≈ 0.0241 µM); MIC [14]: > 1.02 µg/mL; MIC [15]: 0.256 µg/mL (≈ 0.773 µM); MIC [16]: 0.128 µg/mL (≈ 0.386 µM) |
| Nc1nccnc1C(=O)NCc1ccc(C(F)(F)F)cc1 [Compound 8, 3-Amino-N-(4-(trifluoromethyl)benzyl)pyrazine-2-carboxamide] | 169 | 50 to 100 | > 500 | > 1690 | 0.308 | MIC Mtb [1, 27]: 50 µg/mL (≈ 169 µM) |
| C[C@@H]1[C@H](O)[C@@H](C)/C=C/C=C/C=C/C=C/C=C/C=C/C=C/[C@H](O[C@@H]2O[C@H](C)[C@@H](O)[C@H](N)[C@@H]2O)C[C@@H]2O[C@](O)(C[C@@H](O)C[C@@H](O)[C@H](O)CC[C@@H](O)C[C@@H](O)CC(=O)O[C@H]1C)C[C@H](O)[C@H]2C(=O)O [amphotericin B] | – | – | – | – | – | MIC [17]: 1 µg/mL (≈ 1.08 µM); MIC [18]: 0.5 µg/mL (≈ 0.541 µM); MIC [19]: 1 µg/mL (≈ 1.08 µM); MIC [20]: 8 µg/mL (≈ 8.66 µM); MIC [21]: 0.5 µg/mL (≈ 0.541 µM); MIC ([3]; read-out: MIC Trichophyton interdigitale (standards)): 2 µg/mL |
